The record followed here is publication PMC11947183 (Communications Biology, 2025).

The structures appear in SMILES notation.

In general, IC50 refers to the point on the concentration scale where inhibition reaches its midpoint.

Test [1] has as its system MjavOBP1. It counts as binding, Manis javanica. Particulars: for Kd: read-out: K d (competitive binding), pH 7.4.
Test [2] concerns the target MjavOBP2. Set-up: species or system Manis javanica. Particulars: read-out: K d (competitive binding); pH 7.4.
Test [3] concerns MjavOBP3. Also on record: species or system Manis javanica. As to conditions: read-out: IC50 (competitive binding); pH 7.4.

Take `CC(C)=CCCC(C)=CC=O` (mixture of isomers) [citral, Citral]: the “binding to MjavOBP1 (in words)” value in test [1] is on record as “bound weakly”. In the case of `CCCCCCCCCC(C)=O` [2-undecanone, 2-Undecanone], the values for the Kd in test [1] and in test [2] were 56.6 ± 4.2 µM and 54.5 ± 10.8 µM, respectively. Turning to `O=C(O)CCc1ccccc1` [3-phenylpropionic acid, 3-Phenylpropionic acid], the “binding to MjavOBP1 (in words)” value in test [1] was “bound weakly”. As for `CCCCCCCCC(=O)CC` [3-undecanone, 3-Undecanone], the IC50 in test [3] is > 2.23 µM.

`CCCCCC=O` [hexanal, Hexanal]: the IC50 in test [3] is > 2.23 µM. For the molecule `Cc1c[nH]c2ccccc12` [skatole, 3-methylindole], the Kd in test [2] worked out at 40.8 ± 8.93 µM. Regarding `C=CC(=C)CC/C=C(\C)CCC=C(C)C` [β-farnesene], the IC50 in test [3] was > 2.23 µM. As for `CCCCCCCC1CCCC(=O)O1` (stereo not drawn) [δ-dodecalactone, δ-Dodecalactone], the Kd in test [1] was determined as 38.7 ± 2.04 µM.
